Results from patent US11040035B2, “3-oxo-2,6-diphenyl-2,3-dihydropyridazine-4-carboxamides” (BAYER PHARMA AKTIENGESELLSCHAFT, priority 2016, dated 2021).
Like-named read-outs stand apart in the source and are kept apart here.

How the values were obtained:
AHR [1] = molecular target: T1, AHR (Homo sapiens, UniProt P35869); experiment: In vitro assay 1: antagonism in human cell line (transactivation assay, kynurenic acid prestimulated); conditions: Assay 1: AHR-luc Hum Antagonism IC50 [M], 150 μM kynurenic acid, 20 hours, firefly luciferase
T1 sequence (P35869 11-848): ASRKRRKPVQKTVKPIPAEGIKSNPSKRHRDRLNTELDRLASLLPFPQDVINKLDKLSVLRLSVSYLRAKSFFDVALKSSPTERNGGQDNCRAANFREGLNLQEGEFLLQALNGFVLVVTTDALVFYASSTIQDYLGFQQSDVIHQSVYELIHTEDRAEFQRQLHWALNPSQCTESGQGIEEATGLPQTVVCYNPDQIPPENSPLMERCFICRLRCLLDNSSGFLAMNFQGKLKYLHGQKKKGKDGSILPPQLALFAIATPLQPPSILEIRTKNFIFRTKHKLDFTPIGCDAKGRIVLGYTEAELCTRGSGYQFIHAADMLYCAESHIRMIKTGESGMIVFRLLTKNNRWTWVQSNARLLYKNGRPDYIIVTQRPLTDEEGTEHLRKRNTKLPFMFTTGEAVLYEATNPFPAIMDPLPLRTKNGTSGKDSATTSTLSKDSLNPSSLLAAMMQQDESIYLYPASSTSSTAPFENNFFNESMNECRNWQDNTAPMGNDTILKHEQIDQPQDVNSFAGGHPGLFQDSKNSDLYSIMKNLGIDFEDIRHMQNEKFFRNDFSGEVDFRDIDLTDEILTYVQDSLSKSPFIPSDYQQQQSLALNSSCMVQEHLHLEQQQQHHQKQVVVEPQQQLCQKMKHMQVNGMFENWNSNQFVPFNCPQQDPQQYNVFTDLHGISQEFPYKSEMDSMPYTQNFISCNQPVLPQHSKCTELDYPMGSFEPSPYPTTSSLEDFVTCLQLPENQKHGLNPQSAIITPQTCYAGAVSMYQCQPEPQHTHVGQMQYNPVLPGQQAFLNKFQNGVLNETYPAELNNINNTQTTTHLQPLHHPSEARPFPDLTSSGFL
Description: Transactivation assays were carried out in U87 glioblastoma cells (ATCC) endogenously expressing AHR. In addition the cells were stably transfected with an AHR inducible firefly luciferase reporter gene construct that carried AHR-binding sites (DRE) in its promoter and a renilla reporter gene construct with constitutively active promoter. Kynurenic acid is an endogenous AHR activating ligand and was used to prestimulate test cells prior to testing the antagonistic properties of compounds.
In Vitro Assay 1: Antagonism in Human Cell Line
Cells in medium (tryptophan free RPMI, 1% FCS, 2 mM Glutamine) supplemented with 150 μM kynurenic acid were grown for 20 hours in absence (negative control) or presence of increasing concentrations of test compounds (typical dilutions: 72 pmol/L, 0.25 nmol/L, 0.89 nmol/L; 3.1 nmol/L, 11 nmol/L, 38 nmol/L, 130 nmol/L, 470 nmol/L, 1.6 μmol/L, 5.7 μmol/L and 20 μmol/L in duplicates). As positive inhibition control cells supplemented with 150 μM kynurenic acid were incubated in presence of 5 μM Staurosporin. Normalization was done by positive and negative controls.
Firefly luciferase and Renilla activity was determined by the DualGlo Luciferase Assay System (Promega, #2920).

AHR [2] = molecular target: T1, AHR; conditions: 20 h
Description: (§1) Transactivation Assay in Human Cell Line (In Vitro Assays 1 and 2)
(§2) Transactivation assays were carried out in U87 glioblastoma cells (ATCC) endogenously expressing AHR. In addition the cells were stably transfected with an AHR inducible firefly luciferase reporter gene construct that carried AHR-binding sites (DRE) in its promoter and a renilla reporter gene construct with constitutively active promoter.
(§3) In Vitro Assay 2: Agonism in Human Cell Line
(§4) Cells in medium (tryptophan free RPMI, 1% FCS, 2 mM Glutamine) were grown for 20 hours in absence (negative control) or presence of increasing concentrations of test compounds (typical dilutions: 72 pmol/L, 0.25 nmol/L, 0.89 nmol/L; 3.1 nmol/L, 11 nmol/L, 38 nmol/L, 130 nmol/L, 470 nmol/L, 1.6 μmol/L, 5.7 μmol/L and 20 μmol/L in duplicates). As positive activation control cells were incubated with 300 μM kynurenic acid. Normalization was done by positive and negative controls.
(§5) Firefly luciferase activity was determined by the SteadyGlo Luciferase Assay System (Promega, #2520).

CT26 tumor cells = experiment: In vivo assay: efficacy of example compound and PD-1-L1 axis antagonist in CT26 tumor model; conditions: female Balb/c mice, CT26 s.c.; example 23 30 mg/kg BID p.o.; aPD-L1 (TPP-3911) 10 mg/kg q3d i.p.; treatment from day 5
Description: In Vivo Assay: Efficacy of Compositions Comprising an Example Compound and a PD-1-L1 Axis Antagonist
Animals were ordered from Charles River Sulzfeld, Germany and assigned to the study at the age of 8 weeks. Animal husbandry, feeding and health conditions are according to animal welfare guidelines. CT26 cells (aquired from ATCC) were cultivated with RPMI 1640 with 10% FCS and splitted at least 3 times before inoculation. Female Balb/c mice were inoculated with 500.000 CT26 tumor cells in 50% medium/50% matrigel subcutaneously in the flank. After 4 days the animals were randomized and therapeutic treatment started on day 5.
The anti-PDL1 antibody is a chimera of the variable domain of atezolizumab with murine IgG1 CH1, 2 and 3 domains.
Tumor size was measured using calipers determining length (a) and width (b). Tumor volume was calculated according to:
Significance of monotherapies and combination treatment was calculated versus control group as determined by 2-Way ANOVA analysis.
After 4 days the animals were randomized and therapeutic treatment started on day 5. […] Significance of monotherapies and combination treatment was calculated vs. control group as determined by 2-Way ANOVA analysis.

[3] = test system: AHR-regulated gene CYP1A1; experiment: In vitro assay 3: AHR-regulated CYP1A1 expression in human cell line (U937, qPCR); conditions: Homo sapiens, U-937, 6 h, read-out: Assay 3: Hum CYP1A1 Antagonism IC50 [M], U937 cells, 200 μM KA, 6 hours, qPCR
Description: In Vitro Assay 3: AHR-Regulated CYP1A1 Expression in Human Cell Line
To assess the AHR inhibitory activity of the substances described in this application, the ability thereof to antagonise ligand-induced AHR gene regulation in a dose-dependent manner was quantified. For this purpose, quantitative PCR analysis was used to determine expression of the AHR-regulated gene CYP1A1 in a human monocytic U937 cell line upon stimulation with 200 μM KA in the presence and absence of AHR inhibitor. U937 cells were sown at a concentration of 2×10^5 cells/well in 100 ul of growth medium (RPMI 1640, 20% FCS) in 96-well microtitre plates. CYP1A1 expression was induced with 200 μM KA (positive control) in the presence or absence of the substances for 6 hours. Human U937 cells were typically incubated with eight different concentrations of the substances (1 nM, 3 nM, 10 nM, 30 nM, 100 nM, 300 nM, 1 μM and 3 μM) and analyzed in duplicate on the same microtitre plate. After stimulation, cells were lysed with Nucleic Acid Lysis Solution (#4305895, Applied Biosystems) and RNA was isolated using the 6100 Nucleic Acid Preparation Station (Applied Biosystems) and reverse-transcribed to cDNA using SuperScript VILO cDNA synthesis kit (#11754-250, Invitrogen). Unstimulated cells were used as the negative control. Taqman probes for human CYP1A1 (Hs01054797_g1) and human HPRT (Hs02800695_m1) were used to analyze fold expression of CYP1A1 of HPRT. Quantitation was performed on a Taqman SDS7900HT.

AHR [4] = molecular target: T1, AHR; experiment: In vitro assay 2: agonism in human cell line (transactivation assay); conditions: Assay 2: AHR-luc Hum Agonism IC50 [M], no kynurenic acid, 20 hours, firefly luciferase
Description: as §1, §2, §3, §4, §5

[5] = test system: TNFa production by LPS-stimulated human monocytes; experiment: In vitro assay 4: rescue of TNFa production from human primary monocytes; assay type: cell-based; conditions: Homo sapiens, Monocyte, 18 h, human monocytes, 10 ng/mL LPS + 200 μM KA, 18 hours; highest percent TNFa rescue relative to highest rescue with GNF-351; one value per donor; read-out: Individual Donors % rescue TNFa normalised to ref cmpd
Description: In Vitro Assay 4: Rescue of TNFa Production from Human Primary Monocytes
The ability of the substances to enhance immune cell activity was determined. The substances were tested for their capacity to reverse KA-induced inhibition of TNFa production by LPS-stimulated human monocytes. Human monocytes were purified by negative selection from donor PBMCs using Miltenyi beads and seeded at 2×10^5 cells/well in complete growth medium (RPMI 1640, 10% FCS). Monocytes were incubated with 10 ng/mL LPS (0127:68, #L4516, Sigma) and 200 μM KA (#3375, Sigma) and substances were added at concentrations of 1 μM, 0.3 μM and 0.1 μM and cultured for 18 hours. LPS alone served as the positive control. TNFa production in the supernatant was measured by Meso Scale Discovery immunassay and the ability of the substances to rescue TNFa production was calculated as a percentage of LPS stimulation and KA-induced inhibition and normalized to the donor-specific response with the reference AHR antagonist compound GNF-351 (Smith et al., J Pharmacol Exp Ther, 2011, 338(1):318-27).

Row | Compound | IC50 (AHR [1]) [M] | IC50 (AHR [2]) [nM] | T/C, ratio of tumor size under treatment versus tumor size in the control group (CT26 tumor cells) | IC50 [3] [M] | IC50 (AHR [4]) [M] | Emax [5] [%]
1 | Cc1ccc(-c2cc(C(=O)NCC(O)C(F)(F)F)c(=O)n(-c3cc(F)cc(F)c3)n2)cc1 (single isomer, unassigned) [Example 54, 2-(3,5-Difluorophenyl)-6-(4-methylphenyl)-3-oxo-N-(3,3,3-trifluoro-2-hydroxypropyl)-2,3-dihydropyridazine-4-carboxamide] | 4.07e-08 | > 20000 | – | – | – | –
2 | C[C@@H](CO)NC(=O)c1cc(-c2ccc(Cl)cc2)nn(-c2cccc(F)c2)c1=O [Example 23, 6-(4-Chlorophenyl)-2-(3-fluorophenyl)-N-[(2S)-1-hydroxypropan-2-yl]-3-oxo-2,3-dihydropyridazine-4-carboxamide] | 3.99e-08 | – | 0.75 | 7.07e-08 | > 2e-05 | –
3 | O=C(NCC1(O)CCCCC1)c1cc(-c2ccc(Cl)cc2)nn(-c2cccc(F)c2)c1=O [Example 129, 6-(4-Chlorophenyl)-2-(3-fluorophenyl)-N-[(1-hydroxycyclohexyl)methyl]-3-oxo-2,3-dihydropyridazine-4-carboxamide] | 4.52e-07 | – | – | 6e-07 | > 2e-05 | 30
4 | CC[C@@H](CO)NC(=O)c1cc(-c2ccc(Cl)c(F)c2)nn(-c2cccc(F)c2)c1=O [Example 288, 6-(4-Chloro-3-fluorophenyl)-2-(3-fluorophenyl)-N-[(2S)-1-hydroxybutan-2-yl]-3-oxo-2,3-dihydropyridazine-4-carboxamide] | 3.97e-08 | – | – | 8.05e-08 | > 2e-05 | 82
5 | C[C@@H](CO)NC(=O)c1cc(-c2ccc(Cl)c(Cl)c2)nn(-c2cccc(F)c2)c1=O [Example 300, 6-(3,4-Dichlorophenyl)-2-(3-fluorophenyl)-N-[(2S)-1-hydroxypropan-2-yl]-3-oxo-2,3-dihydropyridazine-4-carboxamide] | 1.19e-07 | – | – | 1.07e-07 | > 2e-05 | 122
6 | CC(C)[C@@H](CO)NC(=O)c1cc(-c2ccc(Cl)c(Cl)c2)nn(-c2cccc(F)c2)c1=O [Example 301, 6-(3,4-Dichlorophenyl)-2-(3-fluorophenyl)-N-[(2S)-1-hydroxy-3-methylbutan-2-yl]-3-oxo-2,3-dihydropyridazine-4-carboxamide] | 2.73e-08 | – | – | 8.1e-08 | > 2e-05 | 112
